{"source": "paper PMC9296036", "about": "“A peptide interfering with the dimerization of oncogenic KITENIN protein and its stability suppresses colorectal tumour progression” (Clinical and Translational Medicine, 2022)", "tested_on": "Caco2/KITENIN-V5 cells", "test": "Autophagosome staining (Cyto-ID) in Caco2/KITENIN-V5 cells", "assay_type": "cell-based", "conditions": "KDIP 5 μM, similar to rapamycin positive control", "method": "To test whether KDIP induces autophagy in KITENIN‐expressing Caco2 cells, cells were grown on coverslips for 24 h. Cells were washed with PBS and then stained with Cyto‐ID green fluorescence reagents (Enzo Life Sciences, Plymouth Meeting, PA) for 1 h at 37°C in a cell culture incubator. Cells were washed with PBS and mounted with […] mounting medium containing nuclear DAPI (Vector Lab). Cells were imaged by confocal microscope.\nFIGURE 3 RACK1 binds to KAI1 C‐terminal interacting tetraspanin (KITENIN) and KITENIN dimerization‐interfering peptide (KDIP) stimulates the degradation of KITENIN by inducing increased binding of RACK1 to KITENIN. (A) RACK1 specifically binds to KITENIN. Caco2/KITENIN‐V5 cells were transfected with RACK1‐GFP for 48 h, immunoprecipitated with anti‐GFP antibody and immunoblotted with anti‐V5 antibody to detect KITENIN bound with RACK1 (left panel). […] The proteins in whole‐cell lysate (WCL) were detected with the indicated antibody. […] Caco2 cells were transfected with KITENIN‐V5 and/or RACK1‐GFP (left) or KITENIN‐V5 and/or si‐RACK1 (right), and their expression after treatment with KDIP (1 μM, 24 h) was detected with the indicated antibody (upper) or subjected to invasion assay (lower). […] Caco2/KITENIN‐V5 cells were treated with KDIP for 24 h and assessed by immunoblot analyses using an anti‐KITENIN, an anti‐p62, or an anti‐LC3B antibody (left panel). […]", "note": "Ends that are not written are not given here.", "data": [{"sequence": "YARVRRRGPRRWRLVSDEAV [KDIP]", "values": [{"measurement": "formation of the autophagosome (in words)", "result": "increased"}]}]}
